Assay results as given in patent publication US20250215012A1, “IKZF2 DEGRADERS AND USES THEREOF” (REGENTS OF THE UNIVERSITY OF MICHIGAN, priority 2022, published 2025).

Target: IKZF2 (Homo sapiens (Human), UniProt Q96SW2+Q9UKS7)
Assay: IKZF2 HiBiT Assay (Jurkat-IKZF2-HiBiT cell line)
Assay type: cell-based
Conditions: Jurkat-IKZF2-HiBiT cells, 24 hours; for DC50: read-out: HiBit assay degradation analysis DC50; for Dmax: read-out: HiBit assay degradation analysis Dmax
Outline: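 IKZF2 degradation was assessed as HiBiT luminescence in Jurkat-IKZF2-HiBiT cells, using lytic detection after 24 h of compound treatment at 37 °C, 5% CO2.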

Sequence of IKZF2 (Q9UKS7 whole entry): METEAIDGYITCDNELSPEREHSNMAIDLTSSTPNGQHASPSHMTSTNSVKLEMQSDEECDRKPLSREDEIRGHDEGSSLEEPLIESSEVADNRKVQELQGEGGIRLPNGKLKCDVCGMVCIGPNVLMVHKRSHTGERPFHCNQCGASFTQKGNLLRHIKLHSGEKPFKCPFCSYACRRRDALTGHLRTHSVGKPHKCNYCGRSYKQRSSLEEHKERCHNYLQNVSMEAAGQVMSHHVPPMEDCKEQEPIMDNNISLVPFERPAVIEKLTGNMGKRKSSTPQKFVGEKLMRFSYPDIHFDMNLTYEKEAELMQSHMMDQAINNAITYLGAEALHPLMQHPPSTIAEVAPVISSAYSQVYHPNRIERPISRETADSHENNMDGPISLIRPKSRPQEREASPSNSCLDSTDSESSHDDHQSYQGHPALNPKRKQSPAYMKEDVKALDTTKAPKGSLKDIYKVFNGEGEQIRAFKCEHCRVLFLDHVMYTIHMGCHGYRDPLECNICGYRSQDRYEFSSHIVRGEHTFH
Sequence of IKZF2 (Q96SW2 whole entry): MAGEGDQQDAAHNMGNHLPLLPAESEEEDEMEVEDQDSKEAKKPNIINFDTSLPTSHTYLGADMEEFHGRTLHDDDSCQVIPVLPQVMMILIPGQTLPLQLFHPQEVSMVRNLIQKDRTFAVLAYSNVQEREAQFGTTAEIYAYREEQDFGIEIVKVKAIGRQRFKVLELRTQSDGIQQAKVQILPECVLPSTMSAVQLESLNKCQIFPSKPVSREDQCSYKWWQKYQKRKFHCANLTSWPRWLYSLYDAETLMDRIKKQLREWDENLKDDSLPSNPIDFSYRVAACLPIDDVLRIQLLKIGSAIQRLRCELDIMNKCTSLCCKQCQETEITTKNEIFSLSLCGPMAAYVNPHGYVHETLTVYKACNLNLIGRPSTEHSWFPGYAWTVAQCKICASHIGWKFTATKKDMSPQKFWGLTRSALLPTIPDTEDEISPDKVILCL
Sequence of IKZF2 (Q16531 whole entry partner): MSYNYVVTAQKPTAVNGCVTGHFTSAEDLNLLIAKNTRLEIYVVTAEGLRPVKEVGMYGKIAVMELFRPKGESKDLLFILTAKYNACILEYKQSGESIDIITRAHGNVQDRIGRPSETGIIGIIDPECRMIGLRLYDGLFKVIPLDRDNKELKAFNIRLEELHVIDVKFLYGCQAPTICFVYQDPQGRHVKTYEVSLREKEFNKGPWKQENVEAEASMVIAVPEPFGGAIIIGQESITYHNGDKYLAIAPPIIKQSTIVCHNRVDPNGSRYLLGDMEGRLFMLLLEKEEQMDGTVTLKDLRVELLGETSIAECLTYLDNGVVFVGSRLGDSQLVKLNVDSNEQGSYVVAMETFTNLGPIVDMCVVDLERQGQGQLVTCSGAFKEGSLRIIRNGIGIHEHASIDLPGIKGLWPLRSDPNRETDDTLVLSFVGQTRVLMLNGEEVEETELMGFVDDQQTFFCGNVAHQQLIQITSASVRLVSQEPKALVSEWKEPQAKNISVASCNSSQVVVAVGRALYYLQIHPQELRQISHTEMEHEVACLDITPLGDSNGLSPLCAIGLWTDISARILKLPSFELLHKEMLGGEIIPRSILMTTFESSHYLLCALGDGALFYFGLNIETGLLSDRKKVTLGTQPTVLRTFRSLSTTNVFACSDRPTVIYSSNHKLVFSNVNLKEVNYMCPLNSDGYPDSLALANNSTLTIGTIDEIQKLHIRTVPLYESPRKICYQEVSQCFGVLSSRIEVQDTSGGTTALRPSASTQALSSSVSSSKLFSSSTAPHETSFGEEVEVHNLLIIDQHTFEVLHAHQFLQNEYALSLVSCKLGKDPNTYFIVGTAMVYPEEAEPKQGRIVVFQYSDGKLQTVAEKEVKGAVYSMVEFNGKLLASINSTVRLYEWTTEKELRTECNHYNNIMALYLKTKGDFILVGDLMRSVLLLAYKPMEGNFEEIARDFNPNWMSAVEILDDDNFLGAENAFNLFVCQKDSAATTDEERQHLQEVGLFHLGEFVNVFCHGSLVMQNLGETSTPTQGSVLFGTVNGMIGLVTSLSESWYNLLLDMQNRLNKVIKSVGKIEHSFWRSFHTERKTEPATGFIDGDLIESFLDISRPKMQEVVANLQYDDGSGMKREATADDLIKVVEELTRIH

SMILES	HiBit assay degradation analysis Dmax	DC50 [nM]	Dmax [%]
O=C1CC[C@H](N2Cc3c(ccc4c3OCC43CCN(Cc4cnn(S(=O)(=O)c5ccccc5F)c4)CC3)C2=O)C(=O)N1 [Compound A355, (S)-3-(1′-((1-((2-fluorophenyl)sulfonyl)-1H-pyrazol-4-yl)methyl)-6-oxo-6,8-dihydro-2H,7H-spiro[furo[2,3-e]isoindole-3,4′-piperidin]-7-yl)piperidine-2,6-dione]	C (“C” >=40% and <60%)	200 to 500	–
O=C1CCC(N2Cc3c(ccc4c3OCC43CCN(Cc4ccc5ccn(Cc6cccnc6)c5c4)CC3)C2=O)C(=O)N1 (stereo not shown) [Compound A154, 3-(6-oxo-1′-((1-(pyridin-3-ylmethyl)-1H-indol-6-yl)methyl)-6,8-dihydro-2H,7H-spiro[furo[2,3-e]isoindole-3,4′-piperidin]-7-yl)piperidine-2,6-dione]	–	200 to 500	60 to 80
O=C1CC[C@H](N2Cc3c(ccc4c3OCC43CCN(Cc4ccc5cc[nH]c5c4)CC3)C2=O)C(=O)N1 [Compound A172, (S)-3-(1′-((1H-indol-6-yl)methyl)-6-oxo-6,8-dihydro-2H,7H-spiro[furo[2,3-e]isoindole-3,4′-piperidin]-7-yl)piperidine-2,6-dione]	–	< 50	60 to 80
O=C1CCC(N2Cc3c(ccc4c3OCC43CCN(Cc4ccc5c(Cl)n[nH]c5c4)CC3)C2=O)C(=O)N1 (stereo not shown) [Compound A142, 3-(1′-((3-chloro-1H-indazol-6-yl)methyl)-6-oxo-6,8-dihydro-2H,7H-spiro[furo[2,3-e]isoindole-3,4′-piperidin]-7-yl)piperidine-2,6-dione]	–	50 to 200	60 to 80
O=C1CC[C@H](N2Cc3c(ccc4c3OCC43CCN(CC4CCCN(C(=O)c5ccccc5)C4)CC3)C2=O)C(=O)N1 (stereo partly drawn) [Compound A305, (3S)-3-(1′-((1-benzoylpiperidin-3-yl)methyl)-6-oxo-6,8-dihydro-2H,7H-spiro[furo[2,3-e]isoindole-3,4′-piperidin]-7-yl)piperidine-2,6-dione]	–	> 500	40 to 60
O=C1CCC(N2Cc3c(ccc4c3OCC43CCN(Cc4cnn(-c5cccc(F)c5)c4)CC3)C2=O)C(=O)N1 (stereo not shown) [Compound A311, 3-(1′-((1-(3-fluorophenyl)-1H-pyrazol-4-yl)methyl)-6-oxo-6,8-dihydro-2H,7H-spiro[furo[2,3-e]isoindole-3,4′-piperidin]-7-yl)piperidine-2,6-dione]	–	> 500	40 to 60
O=C1CC[C@H](N2Cc3c(ccc4c3OCC43CCN(Cc4cccc(C5CCOC5)c4)CC3)C2=O)C(=O)N1 (stereo partly drawn) [Compound A304, (3S)-3-(6-oxo-1′-(3-(tetrahydrofuran-3-yl)benzyl)-6,8-dihydro-2H,7H-spiro[furo[2,3-e]isoindole-3,4′-piperidin]-7-yl)piperidine-2,6-dione]	–	> 500	40 to 60
Cn1ncc2ccc(CN3CCC4(CC3)COc3c4ccc4c3CN(C3CCC(=O)NC3=O)C4=O)cc21 (stereo not shown) [Compound A57, 3-(1′-((1-methyl-1H-indazol-6-yl)methyl)-6-oxo-6,8-dihydro-2H,7H-spiro[furo[2,3-e]isoindole-3,4′-piperidin]-7-yl)piperidine-2,6-dione]	–	50 to 200	60 to 80
O=C1CCC(N2Cc3c(ccc4c3OCC43CCN(Cc4ccc(F)c5ccoc45)CC3)C2=O)C(=O)N1 (stereo not shown) [Compound A118, 3-(1′-((4-fluorobenzofuran-7-yl)methyl)-6-oxo-6,8-dihydro-2H,7H-spiro[furo[2,3-e]isoindole-3,4′-piperidin]-7-yl)piperidine-2,6-dione]	–	> 500	40 to 60
COCCn1cc2cc(CN3CCC4(CC3)COc3c4ccc4c3CN(C3CCC(=O)NC3=O)C4=O)ccc2n1 (stereo not shown) [Compound A341, 3-(1′-((2-(2-methoxyethyl)-2H-indazol-5-yl)methyl)-6-oxo-6,8-dihydro-2H,7H-spiro[furo[2,3-e]isoindole-3,4′-piperidin]-7-yl) piperidine-2,6-dione]	–	> 500	< 40
O=C1CCC(N2Cc3c(ccc4c3OCC43CCN(Cc4cnn5c4CCC5)CC3)C2=O)C(=O)N1 (stereo not shown) [Compound A244, 3-(1′-((5,6-dihydro-4H-pyrrolo[1,2-b]pyrazol-3-yl)methyl)-6-oxo-6,8-dihydro-2H,7H-spiro[furo[2,3-e]isoindole-3,4′-piperidin]-7-yl)piperidine-2,6-dione]	–	200 to 500	60 to 80
O=C1CCC(N2Cc3c(ccc4c3OCC43CCN(Cc4ccc(-c5cn[nH]c5)cc4)CC3)C2=O)C(=O)N1 (stereo not shown) [Compound A162, 3-(1′-(4-(1H-pyrazol-4-yl)benzyl)-6-oxo-6,8-dihydro-2H,7H-spiro[furo[2,3-e]isoindole-3,4′-piperidin]-7-yl)piperidine-2,6-dione]	–	50 to 200	60 to 80
O=C1CCC(N2Cc3c(ccc4c3OCC43CCN(CC4CCN(c5ccccc5)CC4)CC3)C2=O)C(=O)N1 (stereo not shown) [Compound A123, 3-(6-oxo-1′-((1-phenylpiperidin-4-yl)methyl)-6,8-dihydro-2H,7H-spiro[furo[2,3-e]isoindole-3,4′-piperidin]-7-yl)piperidine-2,6-dione]	–	> 500	40 to 60
Cc1ccc2[nH]ncc2c1CN1CCC2(CC1)COc1c2ccc2c1CN(C1CCC(=O)NC1=O)C2=O (stereo not shown) [Compound A143, 3-(1′-((5-methyl-1H-indazol-4-yl)methyl)-6-oxo-6,8-dihydro-2H,7H-spiro[furo[2,3-e]isoindole-3,4′-piperidin]-7-yl)piperidine-2,6-dione]	–	< 50	60 to 80
O=C1CCC(N2Cc3c(ccc4c3OCC43CCN(Cc4ccc(-n5cccn5)cc4)CC3)C2=O)C(=O)N1 (stereo not shown) [Compound A222, 3-(1′-(4-(1H-pyrazol-1-yl)benzyl)-6-oxo-6,8-dihydro-2H,7H-spiro[furo[2,3-e]isoindole-3,4′-piperidin]-7-yl)piperidine-2,6-dione]	–	> 500	40 to 60
O=C1CCC(N2Cc3c(ccc4c3OCC43CCN(Cc4cccc5c4COC5)CC3)C2=O)C(=O)N1 (stereo not shown) [Compound A113, 3-(1′-((1,3-dihydroisobenzofuran-4-yl)methyl)-6-oxo-6,8-dihydro-2H,7H-spiro[furo[2,3-e]isoindole-3,4′-piperidin]-7-yl)piperidine-2,6-dione]	–	< 50	60 to 80
O=C1CCC(N2Cc3c(ccc4c3OCC43CCN(Cc4ccccc4Cl)CC3)C2=O)C(=O)N1 (stereo not shown) [Compound A214, 3-(1′-(2-chlorobenzyl)-6-oxo-6,8-dihydro-2H,7H-spiro[furo[2,3-e]isoindole-3,4′-piperidin]-7-yl)piperidine-2,6-dione]	–	200 to 500	40 to 60
O=C1CC[C@H](N2Cc3c(ccc4c3OCC43CCN(C[C@H]4C[C@@H](Oc5ccc(F)cc5)C4)CC3)C2=O)C(=O)N1 [Compound A358, (S)-3-(1′-(((1s,3R)-3-(4-fluorophenoxy)cyclobutyl)methyl)-6-oxo-6,8-dihydro-2H,7H-spiro[furo[2,3-e]isoindole-3,4′-piperidin]-7-yl)piperidine-2,6-dione]	–	> 500	40 to 60
O=C1CC[C@H](N2Cc3c(ccc4c3OCC43CCN(Cc4cnn(S(=O)(=O)c5ccc(Cl)cc5)c4)CC3)C2=O)C(=O)N1 [Compound A352, (S)-3-(1′-((1-((4-chlorophenyl)sulfonyl)-1H-pyrazol-4-yl)methyl)-6-oxo-6,8-dihydro-2H,7H-spiro[furo[2,3-e]isoindole-3,4′-piperidin]-7-yl)piperidine-2,6-dione]	–	–	< 40
